How the values were obtained:
Assay in all cases: kinobeads assay with mass spectrometry detection of kinases (kinase selectivity profile)
Type in all cases: binding
[1] = target: T1, kinases (kinome) (Homo sapiens, UniProt Q9BYT3); settings: STK33 (CAMK), IPI00302351
T1 construct: determined in kinobeads assays with mass spectrometry detection of kinases as described previously; endogenous in cells; host or cells: cell lysate
From the text: (§1) The protein kinase complement of the human genome (the kinome) was described previously (Manning et al., 2002. Science 298(5600):1912-1934). Sequence accession numbers are defined by the International Protein Index (IPI) (Kersey et al., 2004. Proteomics 4(7):1985-1988).

[2] = target: T2, kinases (kinome) (Homo sapiens, UniProt Q16584); settings: MLK3 (TKL), IPI00000977
T2 construct: determined in kinobeads assays with mass spectrometry detection of kinases as described previously; endogenous in cells; host or cells: cell lysate
From the text: as §1

[3] = target: T3, kinases (kinome) (Homo sapiens, UniProt P37173); settings: TGFbR2 (TKL), IPI00164934
T3 construct: determined in kinobeads assays with mass spectrometry detection of kinases as described previously; endogenous in cells; host or cells: cell lysate
From the text: as §1

[4] = target: T4, kinases (kinome) (Homo sapiens, UniProt O94768); settings: DRAK2 (CAMK), IPI00916930
T4 construct: determined in kinobeads assays with mass spectrometry detection of kinases as described previously; endogenous in cells; host or cells: cell lysate
T4 sequence (O94768 1-372): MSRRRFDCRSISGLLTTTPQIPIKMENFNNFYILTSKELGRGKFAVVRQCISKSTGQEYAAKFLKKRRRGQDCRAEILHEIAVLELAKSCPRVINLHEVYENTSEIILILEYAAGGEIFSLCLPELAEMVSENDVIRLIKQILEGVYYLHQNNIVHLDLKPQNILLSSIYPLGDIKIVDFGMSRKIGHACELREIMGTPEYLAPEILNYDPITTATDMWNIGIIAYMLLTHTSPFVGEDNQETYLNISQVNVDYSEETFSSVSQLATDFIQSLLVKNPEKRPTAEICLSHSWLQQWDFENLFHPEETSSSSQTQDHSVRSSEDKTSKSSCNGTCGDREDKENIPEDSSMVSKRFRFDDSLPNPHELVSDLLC
From the text: as §1

[5] = target: T5, kinases (kinome) (Homo sapiens, UniProt Q05655); settings: PKCd (AGC), IPI00329236
T5 construct: determined in kinobeads assays with mass spectrometry detection of kinases as described previously; endogenous in cells; host or cells: cell lysate
From the text: as §1

[6] = target: T6, kinases (kinome) (Homo sapiens, UniProt O14976); settings: GAK (Other), IPI00298949
T6 construct: determined in kinobeads assays with mass spectrometry detection of kinases as described previously; endogenous in cells; host or cells: cell lysate
T6 sequence (O14976 1-1311): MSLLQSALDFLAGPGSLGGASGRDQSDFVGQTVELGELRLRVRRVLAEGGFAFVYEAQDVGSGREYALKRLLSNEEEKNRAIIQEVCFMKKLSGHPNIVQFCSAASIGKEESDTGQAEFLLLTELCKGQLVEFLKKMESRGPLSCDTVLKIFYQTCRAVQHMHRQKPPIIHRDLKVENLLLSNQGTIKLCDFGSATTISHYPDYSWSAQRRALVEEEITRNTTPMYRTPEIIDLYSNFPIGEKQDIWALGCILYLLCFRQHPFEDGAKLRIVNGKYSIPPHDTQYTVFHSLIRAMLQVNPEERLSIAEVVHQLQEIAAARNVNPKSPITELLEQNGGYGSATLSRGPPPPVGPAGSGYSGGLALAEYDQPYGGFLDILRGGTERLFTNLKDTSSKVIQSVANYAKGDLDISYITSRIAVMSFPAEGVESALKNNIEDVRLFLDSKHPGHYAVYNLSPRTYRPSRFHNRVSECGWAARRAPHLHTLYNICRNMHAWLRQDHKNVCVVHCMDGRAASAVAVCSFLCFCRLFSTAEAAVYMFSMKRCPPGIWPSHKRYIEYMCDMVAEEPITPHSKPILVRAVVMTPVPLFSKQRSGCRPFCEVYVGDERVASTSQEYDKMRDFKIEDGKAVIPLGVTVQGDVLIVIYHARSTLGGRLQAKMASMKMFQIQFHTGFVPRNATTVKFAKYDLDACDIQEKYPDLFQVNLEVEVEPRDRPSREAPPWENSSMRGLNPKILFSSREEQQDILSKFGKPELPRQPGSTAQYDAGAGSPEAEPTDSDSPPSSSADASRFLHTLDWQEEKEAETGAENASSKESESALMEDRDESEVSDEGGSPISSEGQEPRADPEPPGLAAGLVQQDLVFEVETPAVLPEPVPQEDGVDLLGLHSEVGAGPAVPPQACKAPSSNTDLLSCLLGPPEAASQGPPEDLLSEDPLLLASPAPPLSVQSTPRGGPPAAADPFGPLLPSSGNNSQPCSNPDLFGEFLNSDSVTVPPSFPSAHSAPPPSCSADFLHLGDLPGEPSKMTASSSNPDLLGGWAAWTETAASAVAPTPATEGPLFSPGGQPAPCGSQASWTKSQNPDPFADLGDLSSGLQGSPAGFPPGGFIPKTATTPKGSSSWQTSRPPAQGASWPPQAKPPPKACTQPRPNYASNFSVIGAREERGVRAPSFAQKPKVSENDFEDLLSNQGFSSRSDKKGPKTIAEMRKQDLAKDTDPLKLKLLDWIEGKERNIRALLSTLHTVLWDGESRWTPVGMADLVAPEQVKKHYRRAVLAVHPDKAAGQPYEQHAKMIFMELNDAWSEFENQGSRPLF
From the text: as §1

[7] = target: T7, kinases (kinome) (Homo sapiens, UniProt Q15759); settings: p38b (CMGC), IPI00019473
T7 construct: determined in kinobeads assays with mass spectrometry detection of kinases as described previously; endogenous in cells; host or cells: cell lysate
From the text: as §1

[8] = target: T8, kinases (kinome) (Homo sapiens, UniProt Q8N5S9); settings: CaMKK1 (Other), IPI00792960
T8 construct: determined in kinobeads assays with mass spectrometry detection of kinases as described previously; endogenous in cells; host or cells: cell lysate
From the text: as §1

[9] = target: T9, kinases (kinome) (Homo sapiens, UniProt Q9P2K8); settings: GCN2 (Other), IPI00163851
T9 construct: determined in kinobeads assays with mass spectrometry detection of kinases as described previously; endogenous in cells; host or cells: cell lysate
From the text: as §1

[10] = target: T10, kinases (kinome) (Homo sapiens, UniProt Q02750); settings: MAP2K1 (STE), IPI00219604
T10 construct: determined in kinobeads assays with mass spectrometry detection of kinases as described previously; endogenous in cells; host or cells: cell lysate
From the text: as §1

[11] = target: T11, kinases (kinome) (Homo sapiens, UniProt P49759); settings: CLK1 (CMGC), IPI00915761
T11 construct: determined in kinobeads assays with mass spectrometry detection of kinases as described previously; endogenous in cells; host or cells: cell lysate
From the text: as §1

[12] = target: T12, kinases (kinome) (Homo sapiens, UniProt P10721); settings: KIT (TK), IPI00022296
T12 construct: determined in kinobeads assays with mass spectrometry detection of kinases as described previously; endogenous in cells; host or cells: cell lysate
From the text: as §1

[13] = target: T13, kinases (kinome) (Homo sapiens, UniProt P49760); settings: CLK2 (CMGC), IPI00028071
T13 construct: determined in kinobeads assays with mass spectrometry detection of kinases as described previously; endogenous in cells; host or cells: cell lysate
From the text: as §1

Measured: IC50

T7 sequence (Q15759 whole entry): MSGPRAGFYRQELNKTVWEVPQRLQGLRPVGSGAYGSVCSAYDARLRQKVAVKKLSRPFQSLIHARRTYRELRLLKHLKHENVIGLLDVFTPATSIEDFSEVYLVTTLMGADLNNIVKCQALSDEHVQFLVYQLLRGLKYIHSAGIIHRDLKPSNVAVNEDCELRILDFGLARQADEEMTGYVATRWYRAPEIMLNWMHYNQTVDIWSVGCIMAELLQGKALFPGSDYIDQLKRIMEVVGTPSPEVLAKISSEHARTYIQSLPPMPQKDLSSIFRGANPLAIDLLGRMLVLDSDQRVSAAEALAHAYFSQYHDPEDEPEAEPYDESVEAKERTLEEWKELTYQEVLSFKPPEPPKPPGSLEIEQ
T11 sequence (P49759 whole entry): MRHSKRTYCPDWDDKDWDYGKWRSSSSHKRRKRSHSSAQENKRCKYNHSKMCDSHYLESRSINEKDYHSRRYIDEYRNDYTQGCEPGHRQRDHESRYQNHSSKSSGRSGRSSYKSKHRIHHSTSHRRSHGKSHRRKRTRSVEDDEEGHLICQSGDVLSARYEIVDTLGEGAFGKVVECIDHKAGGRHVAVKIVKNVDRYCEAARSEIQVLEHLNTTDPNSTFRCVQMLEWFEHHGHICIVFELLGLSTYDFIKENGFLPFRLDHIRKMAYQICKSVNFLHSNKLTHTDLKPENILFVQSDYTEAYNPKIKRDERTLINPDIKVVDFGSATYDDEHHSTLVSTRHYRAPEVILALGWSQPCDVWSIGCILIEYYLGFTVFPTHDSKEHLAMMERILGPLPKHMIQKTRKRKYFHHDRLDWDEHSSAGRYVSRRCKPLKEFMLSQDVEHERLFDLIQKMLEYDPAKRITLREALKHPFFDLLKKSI
T9 sequence (Q9P2K8 whole entry): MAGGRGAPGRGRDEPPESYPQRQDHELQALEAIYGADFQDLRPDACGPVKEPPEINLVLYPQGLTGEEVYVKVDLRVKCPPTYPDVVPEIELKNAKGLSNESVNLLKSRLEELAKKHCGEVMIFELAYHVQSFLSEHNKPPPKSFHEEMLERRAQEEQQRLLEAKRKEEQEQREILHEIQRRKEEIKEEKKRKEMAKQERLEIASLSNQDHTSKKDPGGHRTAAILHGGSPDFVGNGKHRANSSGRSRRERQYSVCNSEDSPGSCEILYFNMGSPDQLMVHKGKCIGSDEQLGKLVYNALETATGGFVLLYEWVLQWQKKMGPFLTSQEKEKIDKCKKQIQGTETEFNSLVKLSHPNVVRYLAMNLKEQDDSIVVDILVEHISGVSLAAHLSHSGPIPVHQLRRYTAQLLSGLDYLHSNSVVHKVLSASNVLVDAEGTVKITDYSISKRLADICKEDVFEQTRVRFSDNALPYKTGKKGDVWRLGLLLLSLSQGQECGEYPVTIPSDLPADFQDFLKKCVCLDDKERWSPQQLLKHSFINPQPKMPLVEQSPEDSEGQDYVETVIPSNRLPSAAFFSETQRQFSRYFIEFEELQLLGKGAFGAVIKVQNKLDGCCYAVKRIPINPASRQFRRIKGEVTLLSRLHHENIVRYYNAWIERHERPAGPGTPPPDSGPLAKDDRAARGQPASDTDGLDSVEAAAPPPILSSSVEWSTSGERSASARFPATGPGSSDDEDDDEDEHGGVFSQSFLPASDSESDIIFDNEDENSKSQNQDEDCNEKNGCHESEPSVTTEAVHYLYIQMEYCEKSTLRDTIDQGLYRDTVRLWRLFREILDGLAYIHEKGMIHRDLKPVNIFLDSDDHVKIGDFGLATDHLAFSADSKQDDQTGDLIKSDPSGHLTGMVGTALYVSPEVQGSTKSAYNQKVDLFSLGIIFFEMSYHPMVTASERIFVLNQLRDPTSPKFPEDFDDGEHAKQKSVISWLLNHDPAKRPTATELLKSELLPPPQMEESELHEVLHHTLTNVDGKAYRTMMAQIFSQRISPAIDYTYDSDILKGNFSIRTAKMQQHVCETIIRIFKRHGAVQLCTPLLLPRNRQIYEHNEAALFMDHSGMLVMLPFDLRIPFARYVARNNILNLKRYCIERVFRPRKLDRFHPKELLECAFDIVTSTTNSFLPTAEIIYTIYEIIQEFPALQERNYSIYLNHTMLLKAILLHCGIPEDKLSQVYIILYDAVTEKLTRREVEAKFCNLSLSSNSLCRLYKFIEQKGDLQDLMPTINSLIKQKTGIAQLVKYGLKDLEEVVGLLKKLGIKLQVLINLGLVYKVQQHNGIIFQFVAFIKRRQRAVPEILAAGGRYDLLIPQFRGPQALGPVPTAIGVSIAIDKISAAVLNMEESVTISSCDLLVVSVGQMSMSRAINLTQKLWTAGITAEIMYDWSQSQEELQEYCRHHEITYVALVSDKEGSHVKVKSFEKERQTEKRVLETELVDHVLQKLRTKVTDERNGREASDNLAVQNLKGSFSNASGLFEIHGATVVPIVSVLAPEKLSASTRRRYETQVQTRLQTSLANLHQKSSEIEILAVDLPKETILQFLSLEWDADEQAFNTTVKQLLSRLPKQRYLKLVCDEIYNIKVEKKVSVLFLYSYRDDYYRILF
T8 sequence (Q8N5S9 whole entry): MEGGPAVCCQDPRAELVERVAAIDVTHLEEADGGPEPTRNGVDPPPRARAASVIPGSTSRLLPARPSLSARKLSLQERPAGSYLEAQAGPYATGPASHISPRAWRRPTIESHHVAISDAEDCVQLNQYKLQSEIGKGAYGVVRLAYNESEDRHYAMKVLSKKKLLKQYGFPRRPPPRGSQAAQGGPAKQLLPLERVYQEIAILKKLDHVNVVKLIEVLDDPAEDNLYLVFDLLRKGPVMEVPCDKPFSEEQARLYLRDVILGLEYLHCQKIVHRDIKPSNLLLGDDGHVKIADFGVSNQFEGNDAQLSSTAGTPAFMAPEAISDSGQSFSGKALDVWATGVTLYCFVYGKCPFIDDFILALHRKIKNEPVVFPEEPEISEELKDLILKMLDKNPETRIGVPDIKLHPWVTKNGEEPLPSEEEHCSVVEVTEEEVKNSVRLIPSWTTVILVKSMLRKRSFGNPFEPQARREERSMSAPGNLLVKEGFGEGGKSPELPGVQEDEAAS
T10 sequence (Q02750 whole entry): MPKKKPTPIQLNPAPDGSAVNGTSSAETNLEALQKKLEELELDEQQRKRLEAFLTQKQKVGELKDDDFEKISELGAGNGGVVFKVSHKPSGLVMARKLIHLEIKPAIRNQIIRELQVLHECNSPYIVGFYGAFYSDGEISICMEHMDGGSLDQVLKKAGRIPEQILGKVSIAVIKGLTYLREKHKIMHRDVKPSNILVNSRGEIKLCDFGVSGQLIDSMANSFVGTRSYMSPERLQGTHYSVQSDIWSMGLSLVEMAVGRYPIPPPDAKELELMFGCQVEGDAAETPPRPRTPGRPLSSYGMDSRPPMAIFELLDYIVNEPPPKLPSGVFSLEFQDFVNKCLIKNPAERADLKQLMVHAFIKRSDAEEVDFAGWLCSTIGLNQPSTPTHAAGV
T5 sequence (Q05655 whole entry): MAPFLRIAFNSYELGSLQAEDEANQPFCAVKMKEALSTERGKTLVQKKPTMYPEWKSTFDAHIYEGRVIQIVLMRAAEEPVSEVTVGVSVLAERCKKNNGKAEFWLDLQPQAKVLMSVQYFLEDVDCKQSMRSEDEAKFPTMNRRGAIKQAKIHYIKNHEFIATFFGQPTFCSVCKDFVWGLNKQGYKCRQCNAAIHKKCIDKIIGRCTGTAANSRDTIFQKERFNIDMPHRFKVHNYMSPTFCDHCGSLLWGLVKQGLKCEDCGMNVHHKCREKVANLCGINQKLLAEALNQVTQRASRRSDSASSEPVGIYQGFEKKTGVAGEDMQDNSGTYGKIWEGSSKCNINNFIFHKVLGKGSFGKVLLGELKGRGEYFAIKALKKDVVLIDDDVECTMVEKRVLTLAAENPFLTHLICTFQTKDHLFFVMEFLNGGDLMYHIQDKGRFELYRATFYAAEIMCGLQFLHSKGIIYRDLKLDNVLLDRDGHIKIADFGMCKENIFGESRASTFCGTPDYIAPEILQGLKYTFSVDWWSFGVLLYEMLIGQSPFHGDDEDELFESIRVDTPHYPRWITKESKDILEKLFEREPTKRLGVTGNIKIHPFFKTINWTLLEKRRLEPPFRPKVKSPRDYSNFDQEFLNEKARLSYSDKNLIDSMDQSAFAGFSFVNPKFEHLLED
T2 sequence (Q16584 whole entry): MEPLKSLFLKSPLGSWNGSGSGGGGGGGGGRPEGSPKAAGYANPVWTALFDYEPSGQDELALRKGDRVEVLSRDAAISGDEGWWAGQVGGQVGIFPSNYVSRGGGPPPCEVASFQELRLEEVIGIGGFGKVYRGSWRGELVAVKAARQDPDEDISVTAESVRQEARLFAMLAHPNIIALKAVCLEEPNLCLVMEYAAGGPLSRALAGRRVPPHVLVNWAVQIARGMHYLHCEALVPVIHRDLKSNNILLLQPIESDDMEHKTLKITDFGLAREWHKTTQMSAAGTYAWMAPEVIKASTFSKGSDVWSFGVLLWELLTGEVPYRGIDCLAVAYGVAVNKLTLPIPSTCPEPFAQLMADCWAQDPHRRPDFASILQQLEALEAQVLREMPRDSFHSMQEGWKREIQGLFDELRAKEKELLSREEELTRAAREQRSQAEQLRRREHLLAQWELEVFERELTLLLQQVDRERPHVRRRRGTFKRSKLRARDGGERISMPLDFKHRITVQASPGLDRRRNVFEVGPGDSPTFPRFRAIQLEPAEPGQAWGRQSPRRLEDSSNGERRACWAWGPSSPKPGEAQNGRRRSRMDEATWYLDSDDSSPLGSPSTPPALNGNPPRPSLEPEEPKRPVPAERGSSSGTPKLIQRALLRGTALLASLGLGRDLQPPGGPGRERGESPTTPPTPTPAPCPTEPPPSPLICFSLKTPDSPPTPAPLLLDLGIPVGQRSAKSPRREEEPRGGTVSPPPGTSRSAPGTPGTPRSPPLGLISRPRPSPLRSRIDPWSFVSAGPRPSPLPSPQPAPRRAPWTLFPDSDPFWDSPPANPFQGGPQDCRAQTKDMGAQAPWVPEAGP

C[C@H]1COCCN1c1nc(-c2ccc(NC(=O)NC3CC3)cc2)cc(-c2ccccc2S(C)(=O)=O)n1 [Example 4, (S)-1-cyclopropyl-3-(4-(2-(3-methylmorpholino)-6-(2-(methylsulfonyl)phenyl)pyrimidin-4-yl)phenyl)urea]
not listed: [11] | [12] | [13]
> 10 µM: all other assays above

C[C@H]1COCCN1c1cc(-c2ccccc2S(C)(=O)=O)nc(-c2ccc(NC(=O)NC3CC3)cc2)n1 [Example 6, (S)-1-cyclopropyl-3-(4-(4-(3-methylmorpholino)-6-(2-(methylsulfonyl)phenyl)pyrimidin-2-yl)phenyl)urea]
> 10 µM: [2] | [3] | [7] | [9]

C[C@H]1COCCN1c1nc(-c2ccc(NC(=O)N[C@H]3CCC[C@@H]3O)cc2)cc(-c2cc(F)ccc2S(C)(=O)=O)n1 [Example 76, 1-(4-(6-(5-fluoro-2-(methylsulfonyl)phenyl)-2-((S)-3-methylmorpholino)pyrimidin-4-yl)phenyl)-3-((1S,2S)-2-hydroxycyclopentyl)urea]
> 10 µM: [3] | [5] | [6] | [8] | [10]

C[C@H]1COCCN1c1nc(-c2ccc(NC(=O)NC3CC3)cc2)cc(-c2cccnc2S(C)(=O)=O)n1 [Example 46, (S)-1-cyclopropyl-3-(4-(2-(3-methylmorpholino)-6-(2-(methylsulfonyl)pyridin-3-yl)pyrimidin-4-yl)phenyl)urea]
not listed: [2] | [7]
> 10 µM: all other assays above

C[C@H]1COCCN1c1cc(-c2ccccn2)nc(-c2ccc(NC(=O)NCCO)cc2)n1 [Example 43, (S)-1-(2-hydroxyethyl)-3-(4-(4-(3-methylmorpholino)-6-(pyridin-2-yl)pyrimidin-2-yl)phenyl)urea]
not listed: [1] | [3] | [4]
> 10 µM: all other assays above

C[C@H]1COCCN1c1nc(-c2ccc(NC(=O)NC3CC3)cc2)cc(-c2cc(F)ccc2S(C)(=O)=O)n1 [Example 40, (S)-1-cyclopropyl-3-(4-(6-(5-fluoro-2-(methylsulfonyl)phenyl)-2-(3-methylmorpholino)pyrimidin-4-yl)phenyl)urea]
not listed: [7] | [9] | [13]
> 10 µM: all other assays above

CCNC(=O)Nc1ccc(-c2cc(-c3ccccc3C#N)nc(N3CCOC[C@@H]3C)n2)cc1 [Example 8, (S)-1-(4-(6-(2-cyanophenyl)-2-(3-methylmorpholino)pyrimidin-4-yl)phenyl)-3-ethylurea]
> 10 µM: [2] | [11] | [13]

Reference: patent publication US9249129B2, “Morpholino substituted urea derivatives as mTOR inhibitors” (CELLZOME LIMITED, priority 2010, dated 2016)
